Earlier results as cited in patent publication US20100144738A1, “INHIBITORS OF C-MET AND USES THEREOF” (priority 2006, published 2010).
Structures can show the parent of a compound that is named as a salt. Where two headings read alike, the source gives them in different places.

Key:
[1] = test system: c-Met mutations
[2] = target: c-Met (Homo sapiens, UniProt P08581); details: single dose
c-Met, sequence (P08581 25-1390): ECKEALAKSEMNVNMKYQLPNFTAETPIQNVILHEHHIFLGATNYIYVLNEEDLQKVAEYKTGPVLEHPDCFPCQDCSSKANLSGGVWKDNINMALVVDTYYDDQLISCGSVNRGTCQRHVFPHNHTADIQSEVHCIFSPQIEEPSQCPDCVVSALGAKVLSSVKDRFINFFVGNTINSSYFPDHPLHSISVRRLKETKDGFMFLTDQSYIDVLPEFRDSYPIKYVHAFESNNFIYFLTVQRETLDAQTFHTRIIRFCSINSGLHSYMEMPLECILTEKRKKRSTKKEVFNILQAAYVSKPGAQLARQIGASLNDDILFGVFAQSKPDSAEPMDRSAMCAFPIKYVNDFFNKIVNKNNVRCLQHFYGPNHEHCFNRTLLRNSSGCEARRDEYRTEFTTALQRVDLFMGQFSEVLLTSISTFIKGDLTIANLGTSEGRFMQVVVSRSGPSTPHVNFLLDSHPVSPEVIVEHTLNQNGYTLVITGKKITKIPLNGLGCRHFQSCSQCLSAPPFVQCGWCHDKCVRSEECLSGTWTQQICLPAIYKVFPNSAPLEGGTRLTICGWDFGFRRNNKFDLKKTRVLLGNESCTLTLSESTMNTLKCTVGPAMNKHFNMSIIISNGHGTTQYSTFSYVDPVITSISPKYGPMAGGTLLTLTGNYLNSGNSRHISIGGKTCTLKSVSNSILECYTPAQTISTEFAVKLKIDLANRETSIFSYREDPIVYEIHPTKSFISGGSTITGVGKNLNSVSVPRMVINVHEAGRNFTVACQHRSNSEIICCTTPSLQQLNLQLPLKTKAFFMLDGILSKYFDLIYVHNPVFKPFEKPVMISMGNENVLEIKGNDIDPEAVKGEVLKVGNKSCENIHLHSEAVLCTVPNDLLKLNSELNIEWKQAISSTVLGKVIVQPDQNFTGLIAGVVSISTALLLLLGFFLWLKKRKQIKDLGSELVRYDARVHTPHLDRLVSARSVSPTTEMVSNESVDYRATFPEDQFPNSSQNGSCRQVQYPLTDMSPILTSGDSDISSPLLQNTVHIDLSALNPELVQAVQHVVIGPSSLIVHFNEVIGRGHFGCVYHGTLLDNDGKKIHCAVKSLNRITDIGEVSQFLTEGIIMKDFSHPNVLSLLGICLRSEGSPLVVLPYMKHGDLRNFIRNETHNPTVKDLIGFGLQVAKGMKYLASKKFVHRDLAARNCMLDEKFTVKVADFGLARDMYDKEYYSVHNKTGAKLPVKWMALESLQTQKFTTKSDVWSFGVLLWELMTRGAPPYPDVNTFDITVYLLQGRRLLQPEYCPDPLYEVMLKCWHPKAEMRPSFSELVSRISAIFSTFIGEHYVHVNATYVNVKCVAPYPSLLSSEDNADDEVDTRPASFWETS

duration of inhibition of c-Met phosphorylation in tumor xenografts [2] | SMILES | sensitivity of mutations to imatinib ([1]; mutations Asp816Val/Phe/Tyr) | sensitivity of mutations to imatinib ([1]; mutations Val560Gly, Glu839Lys, Asp820Gly)
 | Cc1ccc(NC(=O)c2ccc(CN3CCN(C)CC3)cc2)cc1Nc1nccc(-c2cccnc2)n1 [IMATINIB, imatinib mesylate] | resistant | sensitive
≤ 12 h | Cc1[nH]c(/C=C2\C(=O)Nc3ccc(S(=O)(=O)Cc4c(Cl)cccc4Cl)cc32)c(C)c1C(=O)N1CCC[C@@H]1CN1CCCC1 [PHA-665752] |  | 
